Source: paper PMC4155172, “Killing of melanoma cells and their metastases by human lactoferricin derivatives requires interaction with the cancer marker phosphatidylserine” (Biometals, 2014)
Where a SMILES comes first, the peptide text is derived from it. The star is where a group is joined. Octanoyl(6-Me) = CCC(C)CCCCC(=O)*

Assays:
[1] = ANTS/DPX leakage from POPS LUVs; conditions: for ANTS/DPX release from POPS vesicles: 50 µM lipid LUVs; for specificity/selectivity for cancer over non-cancer mimic, ANTS/DPX leakage: POPS versus POPC LUVs; for Permeability—ANTS/DPX leakage, cancer mimic: first symbol of cancer mimic/healthy mimic; on Permeability—ANTS/DPX leakage, cancer mimic: key: +, peptide effect; ++, increasing peptide effect; +++: etc; ++++: etc; −, no peptide effect
Description: (§1) Appropriate amounts of respective phospholipid stock solution were dried under a stream of nitrogen and stored in vacuum overnight to completely remove organic solvents. The dry lipid film was then dispersed in phosphate buffered saline (PBS, 20 mM NaPi, 130 mM NaCl, pH 7.4) and hydrated at a temperature well above the gel to fluid phase transition of the respective phospholipid under intermittent vigorous vortex-mixing. The lipid concentration was 0.1 weight % for calorimetric and 2 % for leakage experiments. Hydration was carried out in presence or absence of peptides at a lipid-to-peptide ratio of 25:1 and 12.5:1 using a protocol described for POPS (Jiménez-Monreal et al. [1998]), DPPS (Jing et al. [2005]) and DPPC (Sevcsik et al. [2007]). Briefly hydration of POPS films occurred at 30 °C, DPPS at 65 °C and DPPC at 50 °C, for 2 h with vortexing for 1 min every 15 min. The hydration of the lipid mixtures DPPS/DPPC 1:5 and DPPS/DPPC 1:1 were performed at 65 °C for 2 h by vortexing accompanied by one freeze–thaw cycle every 15 min. The fully hydrated samples were stored for at least 1 h at room temperature until measurement.
(§2) Leakage of aqueous contents from liposomes was determined using the 8-aminonaphthalene-1,3,6-trisulfonic acid/p-xylene-bis-pyridinium bromide (ANTS/DPX) assay (Ellens et al. [1985]). Lipid films (preparation see above) were hydrated with 12.5 mM ANTS, 45 mM DPX, 68 mM NaCl, 10 mM HEPES (4-(2-hydroxyethyl)-1-piperazineethanesulfonic acid) at pH 7.4 following a standard procedure. Subsequently, the dispersions were extruded 20 times through a polycarbonate filter (Millipore-Isopore™) of 0.1 µm pore size to obtain LUVs. Unilamellarity and size were tested by X-ray and dynamic light scattering, respectively. The ANTS/DPX encapsulating vesicles were separated from free ANTS/DPX by exclusion chromatography using a column filled with Sephadex™ G-75 (Amesham Biosciences) fine gel swollen in an isosmotic buffer (10 mM HEPES, 140 mM NaCl, pH 7.4). The void volume fractions were collected and the phospholipid concentration was determined by phosphate analysis (Bartlett [1959]; Broekhuyse [2005]). The fluorescence measurements were performed in 2 mL of the isosmotic buffer in a quartz cuvette at 37 °C. Aliquots of LUVs were diluted with the isosmotic buffer to a final lipid concentration of 50 µM. Fluorescence spectra were obtained at 37 °C using an excitation wavelength of 360 nm, an emission wavelength of 530 nm and a slit width of 5 nm for both excitation and emission monochromators. Fluorescence emission was recorded as a function of time before and after the addition of incremental amounts of peptide. The fluorescence increase due to leakage and subsequent dilution of quenched dye was measured after addition of peptides. Peptides were added to final concentrations of 2, 4 and 8 µM, corresponding to peptide-to-lipid molar ratios of 1:25, 1:12.5 and 1:6.25, respectively. Data are presented in terms of fluorescence intensity (IF and were calculated using Eq. 3:3 IF=F-F0/Fmax-F0 F is the measured fluorescence, F0 the initial fluorescence without peptide and Fmax the fluorescence corresponding to 100 % leakage gained by addition of 1 % Triton X-100.

[2] = Differential scanning calorimetry of DPPS liposomes; conditions: for Bilayer perturbation—DSC, cancer mimic: first symbol of cancer mimic/healthy mimic; on Bilayer perturbation—DSC, cancer mimic: key: +, peptide effect; ++, increasing peptide effect; +++: etc; ++++: etc; −, no peptide effect
Description: as §1
(§3) DSC experiments were performed with a differential scanning calorimeter (VP-DSC) from MicroCal, Inc. (Northhampton, MA, USA). Heating scans were performed at a scan rate of 30 °C/h (pre-scan thermostating 30 min) with a final temperature of approximately 10 °C above the main transition temperature (Tm) and cooling scans at the same scan rate (pre-scan thermostating 1 min) with a final temperature approximately 20 °C below Tm. The heating/cooling cycle was performed three times. Enthalpies were calculated by integration of the peak areas after normalization to phospholipid concentration and baseline adjustment using the MicroCal Origin software (VP-DSC version). The phase transition temperature was defined as the temperature at the peak maximum (McElhaney [1982]).

[3] = Differential scanning calorimetry of DPPC/DPPS 1:1 liposomes; conditions: lipid to peptide 25:1
Description: as §1, §3

[4] = Differential scanning calorimetry of DPPC liposomes; conditions: for Bilayer perturbation—DSC, healthy mimic: second symbol of cancer mimic/healthy mimic; on Bilayer perturbation—DSC, healthy mimic: key: +, peptide effect; ++, increasing peptide effect; +++: etc; ++++: etc; −, no peptide effect
Description: as §1, §3

[5] = test system: differentiated non-tumorigenic melanocytes; conditions: for melanocytes killed (PI-uptake): 20 µM peptide, 8 h, media containing serum
Description: Human melanocytes used as healthy control cells were isolated from foreskin. Foreskin was cut into small pieces and incubated with 0.3 % trypsin (PAA) overnight at 4 °C and for 1 h at 37 °C. Epidermis was separated. Cells were mechanically removed from the cell layer and centrifuged at 300 g for 3 min. The pellet was re-suspended and cells further cultured in melanocyte growth medium (Biomedica, Vienna, Austria, PromoCell GmbH, Heidelberg, Germany). All cells were kept in a 5 % CO2 atmosphere at 37 °C. At 90 % confluence cell-culture flasks were passaged after detachment with accutase (PAA, Pasching Austria). All cell cultures were periodically checked for mycoplasma.
Cells were collected, re-suspended in media and diluted to a concentration of 10^6 cells/ml. Aliquots of 10^5 cells/100 µl media were incubated with different amount of peptides (0–80 µM) for 8 h at 37 °C and 5 % CO2. Propidium iodide (PI) (2 µl/10^5cells of 50 µg/ml, Invitrogen, Camarillo, CA, USA) was added and cells were again incubated for 5 min at room temperature in the dark. Excitation and emission wavelengths were 536 and 617 nm, respectively. Cytotoxicity was calculated from the percentage of PI positive cells in media alone (P0) and in the presence of peptide (PX). […] Triton-X-100 was used to determine 100 % of PI positive cells (P100).1 %PI-uptake=100∗(PX-P0)/(P100-P0)

[6] = Tryptophan fluorescence and acrylamide quenching with DPPS membranes; design: key: +, peptide effect; ++, increasing peptide effect; +++: etc; ++++: etc; −, no peptide effect; conditions: first symbol of cancer mimic/healthy mimic (PS)
Description: as §1
(§4) Fluorescence spectroscopy experiments were performed using a SPEX Fluoro Max-3 spectrofluorimeter (Jobin–Yvon, Longjumeaum, France) and spectra were analyzed with Datamax software.
(§5) Tryptophan fluorescence spectra were obtained at room temperature using an excitation wavelength of 282 nm and a slit width of 5 nm for excitation and emission monochromators. Quenching of Tryptophan was carried out in the presence and absence of phospholipid liposomes (lipid-to-peptide ratio 25:1) using 0.1, 0.4 and 0.7 M acrylamide. The data were analyzed according to the Stern–Volmer equation (Eq. 2):2 F0F0FF=1+KSVQ where F0 and F represent the fluorescence emission intensities in the absence and presence of the quencher molecule (Q) and KSV is the Stern–Volmer quenching constant, which is a quantitative measure for the accessibility of tryptophan to acrylamide (Tao and Cho [1979]).

[7] = ANTS/DPX leakage from POPC LUVs; conditions: for Permeability—ANTS/DPX leakage, healthy mimic: second symbol of cancer mimic/healthy mimic; for ANTS/DPX release from POPC liposomes: 2–8 µM peptide
Description: [The procedure below names another target; the source lists this target under the same test.] as §1, §2

[8] = test system: melanoma cell line SBcl-2; assay: Propidium iodide-uptake toxicity assay, melanoma SBcl-2; type: cell-based, human; design: Toxicity—PI uptake, cancer cells / Cancer specificity: key: +, peptide effect; ++, increasing peptide effect; +++: etc; ++++: etc; −, no peptide effect; conditions: for Toxicity—PI uptake, cancer cells: first symbol of cancer cells/healthy cells
Text: (§6) Epidermis was separated. […] All cell cultures were periodically checked for mycoplasma.

RBCs = conditions: 2.5 % RBCs, 500 µg peptide/ml; ref Zweytick et al. [2011b]; cited from earlier work
Text: The correlation of activity against bacteria with activity on bacterial model systems for lactoferricin derived peptides and their N-acylated derivatives was shown recently (Zweytick et al. [2011b]).

[9] = Tryptophan fluorescence and acrylamide quenching with DPPC membranes; conditions: second symbol of cancer mimic/healthy mimic; further: key: +, peptide effect; ++, increasing peptide effect; +++: etc; ++++: etc; −, no peptide effect
Description: as §1, §4, §5

E. coli = conditions: ref Zweytick et al. [2011b]; cited from earlier work
Text: It has been reported by Yang et al. (Yang et al. [2004]) that a prerequisite for antitumor but not for antibacterial peptides derived of bovine lactoferrin is a minimum net charge close to +7 and to consist of at least 14 amino acids.

[10] = Differential scanning calorimetry of DPPC/DPPS 5:1 liposomes; conditions: lipid to peptide 25:1, split transition given as peak/peak
Description: as §1, §3

[11] = test system: melanoma metastases WM164; assay: Propidium iodide-uptake toxicity assay, melanoma metastases WM164; type: cell-based, human; conditions: 20 µM peptide, 8 h
Text: as §6

[12] = 8 µM peptide (peptide-to-lipid 1:6.25), 10 mM HEPES 140 mM NaCl pH 7.4, 37 °C, fluorescence
[13] = 25:1 lipid-to-peptide molar ratio
[14] = DPPS liposomes, lipid to peptide 25:1, split transition given as peak/peak
[15] = DPPC liposomes in PBS pH 7.4, lipid to peptide 25:1, scan rate 30 °C/h
[16] = DPPC liposomes, lipid to peptide 25:1
[17] = DPPC liposomes, lipid to peptide 25:1, transition half-width
[18] = DPPC liposomes, lipid to peptide 12.5:1
[19] = 50 µM lipid LUVs, pH 7.4, 37 °C

Row | Compound | ANTS/DPX release from POPS vesicles [1, 12] | specificity/selectivity for cancer over non-cancer mimic, ANTS/DPX leakage [1] | Permeability—ANTS/DPX leakage, cancer mimic [1] | reduction of the main transition enthalpy of DPPS [2, 13] [%] | T1/2 [2, 14] [°C] | Bilayer perturbation—DSC, cancer mimic [2] | T1/2 [3] [°C] | Tm [3] [°C] | ΔH m [3] [kJ/mol] | ΔH pre [4, 15] [kJ/mol] | Tpre [4, 16] [°C] | ΔH m [4, 16] [kJ/mol] | T1/2 [4, 17] [°C] | Bilayer perturbation—DSC, healthy mimic [4] | Toxicity—PI uptake, healthy cells [5] | melanocytes killed (PI-uptake) [5] | Bilayer affinity—quenching, cancer mimic [6] | Permeability—ANTS/DPX leakage, healthy mimic [7] | specificity for cancer cells, PI-uptake ratio melanoma SBcl-2 versus melanocytes ([8]; 20 µM peptide, 8 h) | Bilayer affinity—quenching, healthy mimic [9] | other results
1 | CCC(C)CCCCC(=O)N1CCC[C@H]1C(=O)N[C@@H](Cc1ccccc1)C(=O)N[C@@H](Cc1c[nH]c2ccccc12)C(=O)N[C@@H](CCCNC(=N)N)C(=O)N[C@H](C(=O)N[C@@H](CCCNC(=N)N)C(=O)N[C@H](C(=O)N[C@@H](CCCNC(=N)N)C(=O)N[C@@H](CCCNC(=N)N)C(N)=O)[C@@H](C)CC)[C@@H](C)CC (stereo partly drawn) [6-MO-LF11-322] ({Octanoyl(6-Me)}-PFWRIRIRR-NH2) | ~70% | threefold | ++ | 35 | 2.24 | ++ | 2.45 | 43.3 | 22.6 | 1.7 | 34.6 | 38.1 | 0.26 | + | + | ~ 15% | ++ | + | threefold to fourfold | + | ANTS/DPX release from POPS vesicles ([1]; 4 µM peptide (peptide-to-lipid 1:12.5), pH 7.4, 37 °C): ~ 30%; leakage of POPC vesicles ([7]; peptide-to-lipid molar ratio of 1:6.25 (8 µM), 50 µM lipid LUVs, pH 7.4, 37 °C): about 20%; IC50 ([8]; PI-uptake, cancer cells, 8 h, media containing serum): ~20 µM; specificity for cancer cells after 1 h ([8]; after 1 h, data not shown): sevenfold; Toxicity—PI uptake, cancer cells [8]: ++; lysis of RBCs (RBCs): 20%
2 | PFWRIRIRR-NH2 [LF11-322] | ~ 20% |  | + | 10 |  | + | 2.42 | 44.2 | 34.7 | 4.6 | 34.8 | 37.7 | 0.17 | − |  |  | ++ | − |  | − | T1/2 ([2]; DPPS liposomes, lipid to peptide 12.5:1): 2.48 °C; T1/2 [4, 18]: 0.26 °C; Tm [4, 18]: 41.3 °C; Tpre [4, 18]: 34.5 °C; ΔH m [4, 18]: 38.5 kJ/mol; ΔH pre [4, 18]: 4.18 kJ/mol; Tm [4, 16]: 41.3 °C; minimal inhibitory concentration for E. coli (E. coli): 8 to 16 mg/L; ANTS/DPX release from POPC liposomes [7, 19]: < 5%; killing (PI-uptake) of SBcl-2 ([8]; 80 µM peptide, 8 h, media containing serum, 37 °C): < 10%; T1/2 [10]: 0.80 °C; Tm [10]: 42.4 °C; ΔH m [10]: 42.3 kJ/mol; specificity, PI-uptake ratio melanoma metastases WM164 versus melanocytes [11]: twofold
3 | PFWRIRIRRPRRIRIRWFP-NH2 [R-DIM-P-LF11-322, retro repeat derivative: LF11-322-proline-LF11-322 retro] | 90–100% | up to 20 fold | +++ | 70 | 1.53 | +++ | 1.08 | 42.4 | 33.1 | 6.28 | 34.5 | 38.1 | 0.25 | − | − | < 1% | ++ | − | higher than 1,000 fold | − | decrease of the transition temperature of DPPS [2, 13]: ~5 °C; Tm [2, 14]: 47.9 °C; ΔH m [2, 14]: 13 kJ/mol; Tm [4, 16]: 41.3 °C; ANTS/DPX release from POPC liposomes [7, 19]: < 5%; PI positive SBcl-2 cells ([8]; 20 µM peptide, 8 h, media containing serum): more than 80%; Cancer specificity ([8]; cancer cells/healthy cells): ++++; Toxicity—PI uptake, cancer cells [8]: +++; T1/2 [10]: 0.83 °C; Tm [10]: 42.2 °C; ΔH m [10]: 34.3 kJ/mol; specificity, PI-uptake ratio melanoma metastases WM164 versus melanocytes [11]: > 500 fold
